Measured values from patent publication US10487045B2, “Adamantane derivative and use thereof” (TOHOKU UNIVERSITY, priority 2016, dated 2019).

What was measured:
[1] = target: T1, Kir6.2 channel (Mus musculus, UniProt Q61743); assay: CaMKII activation in N2A cells overexpressing Kir6.2 channel (immunoblotting, anti-phosphorylated CaMKII antibody); type: cell-based; details: 10 nM, one hour, Kir6.2 channel overexpressing N2A cells; control without compound = 100%
T1 construct: expressed in transfected cells; host or cells: Neuro2A (N2A) cells, transient transfection with pcDNA3.1-Kir6.2 (gift of Dr. Toru Ishizuka, Tohoku University)
T1 sequence (Q61743 1-390): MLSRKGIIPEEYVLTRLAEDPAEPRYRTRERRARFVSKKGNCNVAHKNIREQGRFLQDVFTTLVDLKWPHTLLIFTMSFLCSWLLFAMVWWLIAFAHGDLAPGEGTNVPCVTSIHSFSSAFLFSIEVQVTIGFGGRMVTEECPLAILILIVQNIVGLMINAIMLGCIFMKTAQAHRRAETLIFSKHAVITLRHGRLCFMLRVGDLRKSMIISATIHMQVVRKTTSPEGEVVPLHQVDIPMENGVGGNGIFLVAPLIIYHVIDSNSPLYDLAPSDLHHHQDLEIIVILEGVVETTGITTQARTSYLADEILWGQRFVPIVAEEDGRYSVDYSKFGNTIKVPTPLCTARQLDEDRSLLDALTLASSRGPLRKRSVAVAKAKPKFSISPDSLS
Experimental: A plasmid vector having cDNA of Kir6.2 channel inserted therein: pcDNA3.1-Kir6.2, was obtained from Dr. Toru Ishizuka (Graduate School of Life Sciences, Tohoku University). The plasmid vector, pcDNA3.1-Kir6.2, was conditioned in accordance with the manual attached to GenElute HP Plasmid Maxiprep Kit (manufactured by Sigma-Aldrich). A culture solution (composition: DMEM culture solution 450 mL containing 50 ml of bovine serum and 100 units of penicillin/streptomycin) of Neuro2A cells (N2A cells, the National Instituted of Biomedical Innovation) cultured in DMEM culture solution (Gibco) was exchanged with Opti-Mem (Gibco)(containing Lipofectamine R2000 (1 μg/1 ml)) containing pcDNA3.1-Kir6.2 (1 μg/μl) conditioned above, and cultured for 5 hours to obtain N2A cells overexpressing Kir6.2 channel. Exchange with the DMEM culture solution was again performed and culture was carried out for two days. Thereafter, memantine (manufactured by Sigma-Aldrich) and the compound of the present invention (n=4 per group) were added in the culture solutions (DMEM, Gibco) so as to obtain a concentration of 10 nM based on the culture solution, and the culture solutions were allowed to stand still for one hour. Thereafter, Kir6.2 channel overexpressing N2A cells were collected and an SDS sample buffer was added to the N2A cells to prepare a suspension. The suspension was subjected to immunoblotting by use of an anti-phosphorylated CaMKII antibody (Fukunaga K et al., J. Biol. Chem. 1992, 267, 22527-22533) as a primary antibody and an anti-rabbit IgG antibody (manufactured by SouthernBiotech) as a secondary antibody (other conditions except the aforementioned antibodies were the same as those employed in ordinary immunoblotting), to investigate activation of CaMKII. As a result, in TP-009, TP-010, TP-011, TP-012, TP-014, TP-015, TP-048, TP-049, TP-050, TP-051, TP-052, TP-053, bands showing a reaction with the antibody against phosphorylated CaMKII were obtained. It was confirmed that activation of CaMKII is enhanced. In FIG. 1, the result of the case (control: c) where a test compound was not added is regarded as 100%. CaMKII activation of the cases containing memantine, TP-009, TP-010, TP-011, TP-012, TP-014, TP-015, TP-048, TP-049, TP-050, TP-051, TP-052, TP-053 (corresponding to M, 9, 10, 11, […], 15, 48, 49, 50, 51, 52 and 53, respectively) were shown in FIG. 1.

[2] = system: APP23 mice; assay: Immunoblotting of hippocampus for phosphorylation of CaMKII, CaMKIV and ERK; type: in vivo; details: APP23 mice chronically treated, conditions as Test Example 4
Experimental: The hippocampus of APP23 mouse was excised out. To hippocampal slices, an SDS sample buffer was added to prepare a suspension, which was subjected to immunoblotting using antibodies against CaMKII, CaMKIV and ERK (CaMKII: Fukunaga et al., J. Biol. Chem. 1992, 267, 22527-22533, CaMKIV: Kasahara et al., J. Biol. Chem. 2001, 276, 24044-24050, ERK: manufactured by Sigma-Aldrich). In this manner, phosphorylation of the individual proteins was analyzed. CaMKII, CaMKIV and ERK are molecules all considered to play an important role in memory formation. As a result, it was observed that phosphorylation of CaMKII decreases in ordinary APP23 mice; whereas, in APP23 mice chronically treated with TP-014 (the treatment conditions are the same as in the case of Test Example 4), phosphorylation of CaMKII is accelerated.
GluA1 (Ser-831), Synapsin I (Ser-603) and CREB (Ser-133), which are molecules known to be activated if CaMKII is activated. These molecules were analyzed by immunoblotting of hippocampal slice sections suspended in an SDS sample buffer. Antibodies against the individual molecules were obtained from Millipore. It is shown that activation of GluA1 (Ser-831) and CREB (Ser-133) is induced by activation of CaMKII. FIG. 5a and FIG. 5c show bands (image) actually obtained by electrophoresis of immunoblots.

[3] = system: OBX mice; assay: Depression-like symptom: tail-suspension method and forced swim method in OBX mice; type: in vivo; details: chronic administration 2 weeks
Experimental: OBX mice were originally established as depression model mice although a deterioration of cognitive function was observed. Depression was analyzed by a tail-suspension method (a) and a forced swim method (b). The tail-suspension method is a method of pinching the tail of a mouse and hanging the mouse upside down. If the mouse hung has depression, immobility time is long. Since a normal mouse moves even if it is hung, the immobility time is short. In the forced swim method, a mouse is forced to swim in water in a beaker. A mouse having depression neither swims nor moves (just floating). Thus the immobility time is measured. Immobility time was long in OBX mice both in the tail-suspension method (a) and the forced swim method (b). The immobility time of a TP-014 chronic administration group (2 weeks, in the same administration method as that previously mentioned) was improved.

Compound: O=C(N[C@@H](c1ccccc1)[C@H]1[C@H]2C[C@@H]3C[C@](Cl)(C2)C[C@@]1(OC(=O)C(F)(F)F)C3)C(F)(F)F [TP-014, (1S,2R,3S,5S,7S)-5-chloro-2-((R)-phenyl(2,2,2-trifluoroacetamido)methyl)adamantan-1-yl 2,2,2-trifluoroacetate]
- activation of CaMKII (phosphorylated CaMKII bands) [1]: enhanced
- phosphorylation of CaMKII in hippocampus [2]: accelerated
- immobility time (tail-suspension method and forced swim method) [3]: improved
